From PMC5061470, “Promiscuous targeting of bromodomains by bromosporine identifies BET proteins as master regulators of primary transcription response in leukemia” (Science Advances, 2016)

Key:
TIF1A = target: T1, TIF1A (Homo sapiens, UniProt O15164); format: binding
T1 construct: Human BRDs were subcloned into bacteria-expressing vectors; made in house; host or cells: bacteria
T1 sequence (O15164 899-1004 limits assumed): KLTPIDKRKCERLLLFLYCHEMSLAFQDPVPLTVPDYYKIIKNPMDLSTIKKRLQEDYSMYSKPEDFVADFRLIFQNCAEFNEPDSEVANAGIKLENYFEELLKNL

5-HT2B (h) = 5-HT2B (h) (Homo sapiens, UniProt P41595); experiment: biochemical; format: binding; conditions: read-out: % Inhibition of Control Specific Binding
CRF1 (h) = CRF1 (h) (Homo sapiens, UniProt P34998); experiment: biochemical; format: binding; conditions: read-out: % Inhibition of Control Specific Binding
PCAF = target: T2, PCAF (Homo sapiens, UniProt Q92831); format: binding
T2 sequence (Q92831 723-827 limits assumed): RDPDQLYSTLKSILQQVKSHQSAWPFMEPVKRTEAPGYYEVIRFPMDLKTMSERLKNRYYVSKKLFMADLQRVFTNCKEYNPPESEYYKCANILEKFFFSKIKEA

dopamine transporter (h) = dopamine transporter (h) (Homo sapiens, UniProt Q01959); experiment: biochemical; conditions: read-out: % Inhibition of Control Specific Binding
Chain of dopamine transporter (h) (Q01959 whole entry): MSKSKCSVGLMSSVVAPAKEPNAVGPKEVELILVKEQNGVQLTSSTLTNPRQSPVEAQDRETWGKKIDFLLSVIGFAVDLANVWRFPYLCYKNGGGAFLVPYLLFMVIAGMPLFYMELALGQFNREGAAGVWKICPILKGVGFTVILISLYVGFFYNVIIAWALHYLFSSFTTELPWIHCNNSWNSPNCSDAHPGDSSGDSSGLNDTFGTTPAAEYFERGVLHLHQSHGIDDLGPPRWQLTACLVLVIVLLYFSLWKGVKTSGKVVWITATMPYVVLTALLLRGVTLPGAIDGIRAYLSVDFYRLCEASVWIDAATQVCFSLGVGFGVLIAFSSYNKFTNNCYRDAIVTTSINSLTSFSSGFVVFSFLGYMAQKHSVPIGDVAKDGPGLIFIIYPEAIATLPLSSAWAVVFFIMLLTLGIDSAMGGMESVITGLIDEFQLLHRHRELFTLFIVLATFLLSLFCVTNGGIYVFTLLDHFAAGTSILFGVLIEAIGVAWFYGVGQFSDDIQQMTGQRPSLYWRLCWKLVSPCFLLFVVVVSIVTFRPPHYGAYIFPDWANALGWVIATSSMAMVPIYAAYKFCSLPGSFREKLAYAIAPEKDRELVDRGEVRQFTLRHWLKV

kainate = format: binding
BZD (central) = format: binding
5-HT1B = 5-HT1B (Rattus norvegicus, UniProt P28564); experiment: biochemical; conditions: read-out: % Inhibition of Control Specific Binding
Chain of 5-HT1B (P28564 whole entry): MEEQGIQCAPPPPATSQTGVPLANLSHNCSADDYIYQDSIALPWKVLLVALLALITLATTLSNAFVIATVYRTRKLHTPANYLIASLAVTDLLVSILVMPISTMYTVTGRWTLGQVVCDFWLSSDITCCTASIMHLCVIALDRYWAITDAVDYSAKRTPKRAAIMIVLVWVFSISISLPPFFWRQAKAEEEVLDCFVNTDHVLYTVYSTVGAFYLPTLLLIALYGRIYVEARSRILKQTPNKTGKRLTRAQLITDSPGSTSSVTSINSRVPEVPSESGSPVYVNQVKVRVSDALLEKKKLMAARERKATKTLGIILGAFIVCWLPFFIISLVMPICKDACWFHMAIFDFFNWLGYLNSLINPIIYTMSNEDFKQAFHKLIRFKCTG

CB1 (h) = CB1 (h) (Homo sapiens, UniProt P21554); experiment: biochemical; conditions: read-out: % Inhibition of Control Specific Binding
Na+ channel (site 2) = format: binding
SKCa channel = format: binding
V1a (h) = V1a (h) (Homo sapiens, UniProt P37288); experiment: biochemical; conditions: read-out: % Inhibition of Control Specific Binding
Chain of V1a (h) (P37288 whole entry): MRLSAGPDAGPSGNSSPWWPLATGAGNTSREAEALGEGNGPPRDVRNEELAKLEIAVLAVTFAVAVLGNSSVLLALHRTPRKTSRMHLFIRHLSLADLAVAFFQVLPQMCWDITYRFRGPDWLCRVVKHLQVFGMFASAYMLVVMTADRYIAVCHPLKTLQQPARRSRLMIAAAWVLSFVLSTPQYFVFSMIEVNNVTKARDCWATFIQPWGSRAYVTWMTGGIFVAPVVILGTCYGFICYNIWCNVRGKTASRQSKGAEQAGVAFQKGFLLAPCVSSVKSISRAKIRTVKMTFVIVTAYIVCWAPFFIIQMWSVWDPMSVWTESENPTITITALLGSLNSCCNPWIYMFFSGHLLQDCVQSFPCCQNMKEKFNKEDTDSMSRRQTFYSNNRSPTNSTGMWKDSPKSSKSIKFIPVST

BRD2(2) = BRD2(2) (Homo sapiens, UniProt P25440)
Chain of BRD2(2) (P25440 344-453 limits assumed): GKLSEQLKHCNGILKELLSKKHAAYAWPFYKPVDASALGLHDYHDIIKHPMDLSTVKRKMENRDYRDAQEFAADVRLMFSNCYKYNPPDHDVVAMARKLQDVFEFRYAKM

ETA (h) = ETA (h) (Homo sapiens, UniProt P25101); experiment: biochemical; conditions: read-out: % Inhibition of Control Specific Binding
AT1 (h) = AT1 (h) (Homo sapiens, UniProt P30556); experiment: biochemical; conditions: read-out: % Inhibition of Control Specific Binding
Chain of AT1 (h) (P30556 whole entry): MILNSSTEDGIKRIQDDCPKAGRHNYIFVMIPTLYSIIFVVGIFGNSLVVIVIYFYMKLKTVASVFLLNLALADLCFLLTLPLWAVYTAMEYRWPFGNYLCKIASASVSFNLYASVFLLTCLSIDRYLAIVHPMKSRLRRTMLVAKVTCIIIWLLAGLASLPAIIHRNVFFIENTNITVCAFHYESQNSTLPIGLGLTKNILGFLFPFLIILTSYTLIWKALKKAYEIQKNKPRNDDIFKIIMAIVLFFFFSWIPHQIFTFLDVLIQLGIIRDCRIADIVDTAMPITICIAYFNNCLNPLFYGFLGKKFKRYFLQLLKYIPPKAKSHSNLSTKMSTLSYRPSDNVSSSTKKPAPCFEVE

TAF1L(2) = target: T3, TAF1L(2) (Homo sapiens, UniProt Q8IZX4); format: binding
T3 construct: the second BRD of TAF1L [TAF1L(2); S2E]; made in house; host or cells: bacteria
T3 sequence (Q8IZX4 1517-1626 limits assumed): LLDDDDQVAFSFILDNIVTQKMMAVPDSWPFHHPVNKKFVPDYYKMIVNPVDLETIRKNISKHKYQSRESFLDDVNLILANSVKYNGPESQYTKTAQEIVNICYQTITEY

5-HT transporter (h) = 5-HT transporter (h) (Homo sapiens, UniProt P31645); experiment: biochemical; conditions: read-out: % Inhibition of Control Specific Binding
Chain of 5-HT transporter (h) (P31645 whole entry): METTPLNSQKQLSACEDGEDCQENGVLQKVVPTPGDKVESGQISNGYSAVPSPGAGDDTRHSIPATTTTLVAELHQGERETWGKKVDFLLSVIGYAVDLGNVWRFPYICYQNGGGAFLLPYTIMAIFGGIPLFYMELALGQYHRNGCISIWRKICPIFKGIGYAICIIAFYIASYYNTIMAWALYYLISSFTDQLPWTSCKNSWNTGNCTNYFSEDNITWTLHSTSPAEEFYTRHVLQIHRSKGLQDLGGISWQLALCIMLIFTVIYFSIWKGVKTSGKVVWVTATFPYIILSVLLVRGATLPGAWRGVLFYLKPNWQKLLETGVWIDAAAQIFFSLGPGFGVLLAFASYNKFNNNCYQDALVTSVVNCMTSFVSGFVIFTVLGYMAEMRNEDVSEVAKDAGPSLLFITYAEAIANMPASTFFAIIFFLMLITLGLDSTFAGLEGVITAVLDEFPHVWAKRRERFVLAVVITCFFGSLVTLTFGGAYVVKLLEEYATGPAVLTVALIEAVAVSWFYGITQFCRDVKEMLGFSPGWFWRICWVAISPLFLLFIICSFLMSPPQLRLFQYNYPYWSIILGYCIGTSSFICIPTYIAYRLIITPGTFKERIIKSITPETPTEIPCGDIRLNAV

BRD1 = BRD1 (Homo sapiens, UniProt O95696); format: binding
Chain of BRD1 (O95696 562-666): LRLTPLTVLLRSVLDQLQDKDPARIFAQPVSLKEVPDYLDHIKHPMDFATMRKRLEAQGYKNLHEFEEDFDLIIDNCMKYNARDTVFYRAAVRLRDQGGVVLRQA

K562 = format: cell-based, human
sst4 (h) = sst4 (h) (Homo sapiens, UniProt P31391); experiment: biochemical; conditions: read-out: % Inhibition of Control Specific Binding
5-HT7 (h) = 5-HT7 (h) (Homo sapiens, UniProt P34969); experiment: biochemical; conditions: read-out: % Inhibition of Control Specific Binding
Chain of 5-HT7 (h) (P34969 whole entry): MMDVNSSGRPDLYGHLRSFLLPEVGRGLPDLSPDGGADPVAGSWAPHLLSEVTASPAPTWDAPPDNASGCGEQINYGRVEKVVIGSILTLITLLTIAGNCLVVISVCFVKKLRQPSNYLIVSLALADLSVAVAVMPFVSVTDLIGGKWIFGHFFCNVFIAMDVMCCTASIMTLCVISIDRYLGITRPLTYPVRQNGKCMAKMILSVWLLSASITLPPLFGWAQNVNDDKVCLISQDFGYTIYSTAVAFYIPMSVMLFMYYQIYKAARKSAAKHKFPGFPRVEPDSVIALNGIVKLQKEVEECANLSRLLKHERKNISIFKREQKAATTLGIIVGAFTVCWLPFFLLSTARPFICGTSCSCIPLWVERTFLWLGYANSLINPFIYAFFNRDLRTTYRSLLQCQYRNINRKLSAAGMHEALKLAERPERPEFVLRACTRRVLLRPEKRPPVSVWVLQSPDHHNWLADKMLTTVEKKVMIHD

A3 (h) = A3 (h) (Homo sapiens, UniProt P0DMS8); experiment: biochemical; conditions: read-out: % Inhibition of Control Specific Binding
Chain of A3 (h) (P0DMS8 whole entry): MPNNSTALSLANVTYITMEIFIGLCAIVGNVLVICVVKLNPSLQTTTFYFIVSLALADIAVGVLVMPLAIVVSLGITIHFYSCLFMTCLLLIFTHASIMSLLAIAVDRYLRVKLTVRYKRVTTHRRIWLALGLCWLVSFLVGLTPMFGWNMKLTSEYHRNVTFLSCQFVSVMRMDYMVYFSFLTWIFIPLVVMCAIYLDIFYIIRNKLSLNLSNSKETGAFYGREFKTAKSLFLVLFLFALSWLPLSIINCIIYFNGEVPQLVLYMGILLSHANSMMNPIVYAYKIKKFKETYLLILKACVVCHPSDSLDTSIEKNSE

GABA transporter = format: binding
NMDA = experiment: CEREP binding, antagonist radioligand
BRPF3 = target: T4, BRPF3 (Homo sapiens, UniProt Q9ULD4); format: binding
T4 construct: Human BRDs were subcloned into bacteria-expressing vectors; made in house; host or cells: bacteria
T4 sequence (Q9ULD4 589-693 limits assumed): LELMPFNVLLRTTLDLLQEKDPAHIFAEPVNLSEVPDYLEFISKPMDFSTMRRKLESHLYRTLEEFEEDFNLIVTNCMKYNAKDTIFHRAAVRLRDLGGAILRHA

TAF1L(1) = TAF1L(1) (Homo sapiens, UniProt Q8IZX4)
Chain of TAF1L(1) (Q8IZX4 1395-1503): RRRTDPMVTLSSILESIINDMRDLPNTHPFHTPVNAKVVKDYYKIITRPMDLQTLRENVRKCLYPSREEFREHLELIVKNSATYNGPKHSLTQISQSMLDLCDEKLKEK

PPARgamma (h) = PPARgamma (h) (Homo sapiens, UniProt P37231); experiment: biochemical; conditions: read-out: % Inhibition of Control Specific Binding
CCK1 (CCKA) (h) = CCK1 (CCKA) (h) (Homo sapiens, UniProt P32238); experiment: biochemical; conditions: read-out: % Inhibition of Control Specific Binding
Chain of CCK1 (CCKA) (h) (P32238 whole entry): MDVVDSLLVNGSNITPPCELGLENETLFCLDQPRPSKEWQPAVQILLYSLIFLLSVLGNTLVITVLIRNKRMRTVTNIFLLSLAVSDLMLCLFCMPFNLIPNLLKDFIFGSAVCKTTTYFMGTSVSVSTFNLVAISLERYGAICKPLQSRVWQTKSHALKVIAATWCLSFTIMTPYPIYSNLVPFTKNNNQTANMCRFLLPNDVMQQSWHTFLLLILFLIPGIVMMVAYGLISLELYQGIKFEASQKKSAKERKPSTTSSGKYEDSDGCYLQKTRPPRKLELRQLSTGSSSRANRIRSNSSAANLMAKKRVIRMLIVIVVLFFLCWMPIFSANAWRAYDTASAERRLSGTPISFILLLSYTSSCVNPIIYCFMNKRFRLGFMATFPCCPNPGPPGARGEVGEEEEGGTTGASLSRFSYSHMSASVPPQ

BRD2(1) = BRD2(1) (Homo sapiens, UniProt P25440)
Chain of BRD2(1) (P25440 74-180 limits assumed): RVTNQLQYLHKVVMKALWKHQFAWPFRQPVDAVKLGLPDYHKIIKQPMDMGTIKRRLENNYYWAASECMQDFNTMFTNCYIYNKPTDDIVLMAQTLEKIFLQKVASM

NCI-60 tumor cell lines = format: cell-based, human
TNF-alpha (h) = experiment: CEREP binding, agonist radioligand; set-up: species or system human
BAZ2B = target: T5, BAZ2B (Homo sapiens, UniProt Q9UIF8); format: binding; conditions: pH 7.5
T5 construct: Human BRDs were subcloned into bacteria-expressing vectors; made in house
T5 sequence (Q9UIF8 2060-2164 limits assumed): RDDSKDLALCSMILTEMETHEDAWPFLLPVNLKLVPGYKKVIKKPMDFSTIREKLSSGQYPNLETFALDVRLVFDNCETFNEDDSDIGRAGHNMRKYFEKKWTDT

H3 (h) = H3 (h) (Homo sapiens, UniProt Q9Y5N1); experiment: biochemical; conditions: read-out: % Inhibition of Control Specific Binding
Chain of H3 (h) (Q9Y5N1 whole entry): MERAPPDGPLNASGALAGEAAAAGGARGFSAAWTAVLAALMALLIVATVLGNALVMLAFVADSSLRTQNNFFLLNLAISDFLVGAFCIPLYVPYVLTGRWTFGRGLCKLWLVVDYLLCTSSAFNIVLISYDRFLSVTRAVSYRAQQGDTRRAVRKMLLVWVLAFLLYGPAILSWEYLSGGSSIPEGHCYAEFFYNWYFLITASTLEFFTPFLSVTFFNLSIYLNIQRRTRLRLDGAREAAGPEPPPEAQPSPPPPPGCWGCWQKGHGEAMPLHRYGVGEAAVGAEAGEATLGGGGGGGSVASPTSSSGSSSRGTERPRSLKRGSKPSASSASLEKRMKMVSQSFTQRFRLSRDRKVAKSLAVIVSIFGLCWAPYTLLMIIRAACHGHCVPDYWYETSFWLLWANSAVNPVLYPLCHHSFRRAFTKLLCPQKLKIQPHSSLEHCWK

## CCOC(=O)Nc1cc(-c2ccc(C)c(NS(C)(=O)=O)c2)nn2c(C)nnc12 [BSP, ethyl (3-methyl-6-(4-methyl-3-(methylsulfonamido)phenyl)-[1,2,4]triazolo[4,3-b]pyridazin-8-yl)carbamate]
TIF1A
  N: 1.09 ± 0.029
  TΔS: 4.06 kcal/mol
  ΔG: -6.67 kcal/mol
  ΔH^obs: -2.61 ± 0.088 kcal/mol
5-HT2B (h)
  inhibition at 10 µM: 7%
CRF1 (h)
  inhibition at 10 µM: -50%
PCAF
  N: 0.95 ± 0.044
  TΔS: -0.83 kcal/mol
  ΔG: -7.02 kcal/mol
  ΔH^obs: -7.85 ± 0.454 kcal/mol
Dopamine transporter (h)
  inhibition at 10 µM: 28%
kainate
  % Inhibition of Control Specific Binding: -4
BZD (central)
  % Inhibition of Control Specific Binding: -8
5-HT1B
  inhibition at 10 µM: -13%
CB1 (h)
  inhibition at 10 µM: -34%
Na+ channel (site 2)
  % Inhibition of Control Specific Binding: 4
SKCa channel
  % Inhibition of Control Specific Binding: -15
V1a (h)
  inhibition at 10 µM: -6%
BRD2(2)
  N: 1.10 ± 0.003
  TΔS: 4.18 kcal/mol
  ΔG: -9.64 kcal/mol
  ΔH^obs: -5.46 ± 0.028 kcal/mol
ETA (h)
  inhibition at 10 µM: -1%
AT1 (h)
  inhibition at 10 µM: -1%
TAF1L(2)
  N: 0.99 ± 0.003
  TΔS: -2.76 kcal/mol
  ΔG: -9.72 kcal/mol
  ΔH^obs: -12.48 ± 0.069 kcal/mol
5-HT transporter (h)
  inhibition at 10 µM: -15%
BRD1
  N: 1.01 ± 0.008
  TΔS: 0.30 kcal/mol
  ΔG: -7.62 kcal/mol
  ΔH^obs: -7.32 ± 0.078 kcal/mol
K562
  effect on cell proliferation: No significant effect
sst4 (h)
  inhibition at 10 µM: 19%
5-HT7 (h)
  inhibition at 10 µM: 7%
A3 (h)
  inhibition at 10 µM: 100%
GABA transporter
  % Inhibition of Control Specific Binding: 0
NMDA
  % Inhibition of Control Specific Binding: -2
BRPF3
  N: 1.08 ± 0.025
  TΔS: 2.48 kcal/mol
  ΔG: -6.68 kcal/mol
  ΔH^obs: -4.20 ± 0.123 kcal/mol
TAF1L(1)
  N: 1.00 ± 0.146
  TΔS: 1.29 kcal/mol
  ΔG: -6.07 kcal/mol
  ΔH^obs: -4.78 ± 0.778 kcal/mol
PPARgamma (h)
  inhibition at 10 µM: 3%
CCK1 (CCKA) (h)
  inhibition at 10 µM: -8%
BRD2(1)
  N: 1.00 ± 0.003
  TΔS: 1.34 kcal/mol
  ΔG: -9.25 kcal/mol
  ΔH^obs: -7.90 ± 0.034 kcal/mol
NCI-60 tumor cell lines
  growth inhibition: strong growth inhibition
TNF-alpha (h)
  % Inhibition of Control Specific Binding: -7
BAZ2B
  KD: Weak binding
H3 (h)
  inhibition at 10 µM: 1%
